Earlier results in publication PMC9311539, “Antibacterial Activity against Clinical Isolates and In Vivo Efficacy of Coralmycins” (Antibiotics, 2022).
≈ marks a conversion by molar mass, not a printed value. Like-named read-outs stand apart in the source and are kept apart here.

Tests used:
E. coli ATCC 25922 [1] = system: E. coli ATCC 25922; design: method as in PMID 34123255; conditions: cited from earlier work
[2] = design: method as in PMID 34123255; conditions: cited from earlier work
E. coli ATCC 25922 [3] = system: E. coli ATCC 25922; design: method as in PMID 34123255; conditions: 37.5 mg/kg/day; cited from earlier work

For `CC(C)Oc1c(NC(=O)c2ccc(NC(=O)C(CC(N)=O)NC(=O)c3ccc(NC(=O)c4ccc(C#N)cc4)cc3)cc2)ccc(C(=O)Nc2ccc(C(=O)O)cc2)c1O` (centres unmarked) [CN-DM-861], the MIC (E. coli ATCC 25922 [1]) is given as 0.02 µg/mL (≈ 0.0246 µM), the “detection in tissues (thigh, kidney, lung)” value ([2]; after s.c. administration) is given as “well detected” and the AUC ([2]; i.v. 5 mg/kg) is given as “approximately 2 μg·h/mL”. For the same compound, the T1/2 ([2]; i.v. 5 mg/kg) was “approximately 1 h”, the Vdss ([2]; i.v. 5 mg/kg) was 3.5 L/kg and the bioavailability ([2]; reported) was 25%. The AUC/MIC ratio ([2]; s.c. 5 mg/kg, MIC against E. coli ATCC 25922) was 159.5, the AUC ([2]; s.c. 5 mg/kg) was 517 ng·h/mL and the Cmax ([2]; s.c. 5 mg/kg) was 128 ng/mL. For the same compound, the Tmax ([2]; s.c. 5 mg/kg) was 1.7 h and the “in vivo effect in three mouse models” value (E. coli ATCC 25922 [3]) was “potent bactericidal effects”.
